We go through 2 compounds from paper PMC5851003 (ACS nano, 2018).

One assay deals with CXCR-4 receptor (Homo sapiens, UniProt P61073). Type of assay: binding. The note with it: A549 cells.
Assay [1] has as its target human α4β2 nicotinic acetylcholine receptor (nAChR) (Homo sapiens, UniProt P17787+P43681). Type of assay: binding. The note with it: SH-EP1-α4β2 cells.

human α4β2 nicotinic acetylcholine receptor (nAChR), sequence (P43681 29-627 limits assumed): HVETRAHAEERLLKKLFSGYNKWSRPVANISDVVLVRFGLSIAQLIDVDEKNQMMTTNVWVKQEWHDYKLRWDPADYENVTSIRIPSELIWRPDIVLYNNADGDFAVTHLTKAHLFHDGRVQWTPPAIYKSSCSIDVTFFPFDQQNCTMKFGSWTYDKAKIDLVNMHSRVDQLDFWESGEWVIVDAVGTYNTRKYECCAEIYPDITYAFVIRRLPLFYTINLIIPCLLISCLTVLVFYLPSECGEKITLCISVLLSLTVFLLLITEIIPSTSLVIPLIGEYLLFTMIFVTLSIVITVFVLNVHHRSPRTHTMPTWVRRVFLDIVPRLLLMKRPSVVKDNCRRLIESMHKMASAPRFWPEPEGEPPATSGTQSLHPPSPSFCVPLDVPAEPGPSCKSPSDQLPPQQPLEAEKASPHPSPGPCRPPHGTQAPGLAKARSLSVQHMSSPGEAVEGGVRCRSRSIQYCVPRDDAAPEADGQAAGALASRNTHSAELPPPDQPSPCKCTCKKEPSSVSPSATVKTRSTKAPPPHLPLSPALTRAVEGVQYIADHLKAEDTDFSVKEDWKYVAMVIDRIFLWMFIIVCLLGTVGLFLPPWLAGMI
human α4β2 nicotinic acetylcholine receptor (nAChR), sequence (P17787 26-502): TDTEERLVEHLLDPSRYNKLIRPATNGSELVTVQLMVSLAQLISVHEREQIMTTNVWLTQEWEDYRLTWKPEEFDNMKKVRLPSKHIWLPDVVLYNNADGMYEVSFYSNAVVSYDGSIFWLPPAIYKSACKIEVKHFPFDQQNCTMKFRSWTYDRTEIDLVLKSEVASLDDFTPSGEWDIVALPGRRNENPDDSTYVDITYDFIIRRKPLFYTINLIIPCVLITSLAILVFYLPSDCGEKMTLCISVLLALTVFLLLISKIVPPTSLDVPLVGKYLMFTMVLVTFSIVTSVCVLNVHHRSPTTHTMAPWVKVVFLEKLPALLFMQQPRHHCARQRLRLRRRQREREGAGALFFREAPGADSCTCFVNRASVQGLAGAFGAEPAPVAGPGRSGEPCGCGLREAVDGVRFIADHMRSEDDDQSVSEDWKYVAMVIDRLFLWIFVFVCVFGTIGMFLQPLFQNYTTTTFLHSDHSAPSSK
CXCR-4 receptor, sequence (P61073 whole entry): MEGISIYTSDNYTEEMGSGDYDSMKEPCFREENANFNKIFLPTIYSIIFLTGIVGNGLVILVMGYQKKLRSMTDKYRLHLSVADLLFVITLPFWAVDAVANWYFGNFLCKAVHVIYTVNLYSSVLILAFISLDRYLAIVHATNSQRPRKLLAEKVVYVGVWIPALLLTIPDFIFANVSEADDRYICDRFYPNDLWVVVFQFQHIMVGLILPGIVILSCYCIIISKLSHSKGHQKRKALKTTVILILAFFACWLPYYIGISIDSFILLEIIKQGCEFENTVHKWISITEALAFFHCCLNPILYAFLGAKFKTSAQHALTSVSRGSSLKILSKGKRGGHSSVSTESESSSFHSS

Consider `c1cc(CN2CCCNCCNCCCNCC2)ccc1CN1CCCNCCNCCCNCC1` [AMD3100], for which, on CXCR-4 receptor, the “binding induced membrane deformation, maximum value” is given as 46 nm. With `CC(=O)OCC[N+](C)(C)C` [acetylcholine], the maximum membrane deformation entry in assay [1] was “around 70 nm”.
